# Like-named read-outs stand apart in the source and are kept apart here.
# What was measured:
# [1] = for 2-methylserotonin remaining: 200 ng spike-in
# rat hepatocytes = details: cited from earlier work
# [2] = Human studies with pea and orange fiber snack prototypes: fecal N-methylserotonin and serotonin levels; type: in vivo; details: in vivo
# Description: Human studies with pea and orange fiber snack prototypes. Two separate open-label, single group assignment studies were performed involving members of the Missouri Adolescent Female Twin Study (MOAFTS) cohort who were age 31-45 years at the time of enrollment. The first study with the pea fiber snack was performed between April and August 2017, while the second study with the orange fiber snack was conducted between August and December 2017. All participants provided written informed consent and the studies were approved by the Washington University Institutional Review Board (IRB ID #201611122). (ClinicalTrials.gov NCT03078283).
# The design of the two studies were identical except for the fiber snack supplement used and the number of participants in each study. Individuals who were pregnant or trying to get pregnant, had inflammatory bowel disease, gastrointestinal cancer, hepatitis, HIV, renal failure, or allergies to dairy, eggs, fish, crustacean shellfish, tree nuts, sesame seeds, peanuts, wheat, gluten, soybeans, celery, or mustard were excluded from the study. In Study 1, four twin pairs were concordant for obesity (BMI>30 kg/m2) while five pairs were discordant with one member being obese and the other non-obese (n=18 participants, […] (mean±SD); Table S8B). Study 2 involved 24 participants: 12 dizygotic twin pairs [37±2.9 years (mean±SD)], nine of whom had participated in the pea fiber study; for these nine pairs, the interval between cessation of pea fiber snack consumption and initiation of orange fiber consumption ranged from 50 to 106 days [84+26 days (mean±SD)]. Participants consumed their normal, unrestricted diet for the first two weeks of the study (pre-intervention phase). At the beginning of week three, they supplemented their diets with one 35 g fiber snack serving a day for one week, then two 35 g snack servings a day the following week, and thereafter, three 35 g snacks per day for four weeks (weeks 5-8) at breakfast, lunch and dinner. No attempt was made to adjust the diets of participants other than supplementation with the fiber snack. Snack prototypes were manufactured by Mondeldz International, Inc. (see Table S8A for their composition), which participants received in weekly shipments from the study center. The pea fiber snacks were in the form of rotary biscuits (6.7 g total fiber/35 g snack) or extruded bars (8.1 g fiber/35 g snack) with participants having the option to alternate between them. The orange fiber snacks were all in the form of extruded bars (10.2 g total fiber/35 g snack). Compliance was monitored throughout by the study coordinator through weekly phone calls. The primary outcomes for each study were the effects of the respective prototypes on gut microbial community structure and function.
# Fecal samples were collected by participants in small medically approved collection containers. Each fecal sample was frozen immediately at −20° C. and temporarily stored in dedicated freezers provided to participants at the beginning of the study. Within 12-48 hours after collection, all samples were shipped, via overnight delivery, in an insulated container containing frozen gel packs, to a biospecimen repository located in Washington University in St. Louis and overseen by one of the authors (A.C.H.). Once received, samples were stored at −80° C. until processing for LC-QqQ-MS analysis of N-methylserotonin levels and culture-independent characterization of ASV and CAZyme gene abundances.
# Measurement of fecal N-methylserotonin levels—Each fecal sample was homogenized with a porcelain mortar (4 L) and pestle while submerged in liquid nitrogen; multiple 500 mg aliquots of the pulverized frozen material were stored at −80° C. N-methylserotonin was quantified using the same protocol that was employed for mouse fecal samples (as described herein elsewhere).
# N-methylserotonin levels and microbiome CAZyme gene abundances in humans consuming fiber snack prototypes. […]
# [3] = In vitro screening of bacterial strains for N-methylserotonin releasing activity from orange fiber; type: cell-based, human gut bacterial strains; details: for N-methylserotonin released, MEGA Medium 2.0 72 hrs / N-methylserotonin released, TYG medium 8 hrs / N-methylserotonin released, TYG medium 24 hrs / N-methylserotonin released, TYG medium 48 hrs / N-methylserotonin released, TYG medium 72 hrs / N-methylserotonin released, Wilkins-Chalgren 72 hrs: 5 mg/ml orange fiber, normalized to 10^6 microbes, n=3
# Description: In vitro screening of bacterial strains for N-methylserotonin releasing activity. A given bacterial strain was grown in monoculture at 37° C. in TYG medium in an anaerobic chamber (atmosphere; 75% N2, 20% CO2 and 5% H2) to stationary phase. An aliquot was then added to 10 mL of fresh TYG medium with or without 50 mg of orange fiber that had been sterilized by gamma irradiation (30-50 KGy); the mixture was incubated under anaerobic conditions without shaking for 72 hours. A 200 μL aliquot was then removed for targeted LC-QqQ-MS measurement of N-methylserotonin levels; another aliquot was used to define the number of colony-forming units so that levels of the analyte were expressed per 10^6 cells. An identical protocol was used to compare the amount of N-methylserotonin released when two other rich media, MEGA medium 2.0 and Wilkins-Chalgren anaerobe broth (Thermo-Fisher), were used in lieu of TYG. All incubations were performed in triplicate for each condition. […]
# Bacterial strains capable of mining of N-methylserotonin from orange fiber in vitro. Given that detection of N-methylserotonin was dependent on colonization with the bacterial consortium and consumption of orange fiber, it was next investigated which community members were responsible for its appearance. Each of the 14 community members was grown in monoculture to stationary phase in TYG medium; 10^5 cells of each organism were incubated in 10 mL of a 5 mg/mL suspension of orange fiber for 8, 24, 48, 72 and 168 hours. N-methylserotonin was quantified using targeted LC-QqQ-MS. […] At this time point, Bacteroides ovatus strain TSDC 17.2 and a strain of Parabacteroides distasonis yielded similar quantities of product (29±1 and 24±2 ng N-methylserotonin/10^6 cells, respectively). In contrast, the 12 other strains yielded<1.5 ng/10^6 cells—an amount that was not appreciably higher than background levels (triplicate incubations/organism; FIG. 1C). […]
# [4] = Release of N-methylserotonin from orange fiber by commercially available glycoside hydrolase preparations; type: biochemical
# Description: Enzymatic screening of citrus & plant samples. All enzymatic assays are carried out using a total volume of 10 ml in water, 50 mg of plant fiber material tested and 700 active units of the same cellulase enzyme mixture (Sigma) as described herein. Samples were processed based on their condition, divided as follows. Citrus fibers sourced from various citrus types, described in Table S9 as “Ground,” are added directly to the enzymatic assay, while citrus fibers described as either “Granule” or “Whole” are first manually pulverized into a fine powder via mortar and pestle. The commercially available fiber source is classified as “Ground” if it was already processed into fine powder, or otherwise small enough granules in which individual pieces cannot be manually picked up via forceps. The commercially available fiber source is classified as “Granule” or “Whole” if individual fragments or pieces of the fiber is readily discernable, where “Granule” are applied to visibly uniform samples and “Whole” applied to all other samples. […]
# Identifying genes involved in release of N-methylserotonin from orange fiber. […] When orange fiber (50 mg) was subjected to repeated rounds of extraction with methanol, small quantities of N-methylserotonin were released after each round (31 ng after two rounds; 171 ng in total after 15 rounds; Table S4F). […]
# [5] = Control experiments of bacterial N-methylserotonin release (heat-killed cells, conditioned media, lysates); type: cell-based, human gut bacterial strains
# Description: Experiments seeking to test the necessity of having live bacteria to extract N-methylserotonin were carried out by first incubating monocultures of B. ovatus, B. finegoldii, […] conditions to stationary phase. The stationary phase culture was then treated at 70° C. for 1 hour. […]
# Experiments using conditioned media were carried out by taking monocultures of B. ovatus, B. finegoldii, P. distasonis, […], centrifuging the culture for […]
# Experiments using bacterial lysates were carried out by bead-beating of bacterial cells, collected by centrifugation from 10 mL stationary phase TYG cultures for 4 minutes at room temperature; 500 μL of the […] To ensure sterility in these experiments, aliquots of the heat-treated cells, centrifuged conditioned media, or bacterial lysate were cultured in TYG medium for 7 days and subsequently plated on TYG-agar; the results confirmed the absence of colony forming units. Assays were performed in triplicate for each experimental condition.
# These experiments indicate that mining requires intact viable cells.
compound,measurement,setting,value
"Cc1[nH]c2ccc(O)cc2c1CCN [2-methylserotonin, reference compound]",2-methylserotonin remaining,[1]; Extraction 1,190 ng
same,2-methylserotonin remaining,[1]; Extraction 2,10 ng
same,2-methylserotonin remaining,[1]; Extraction 3,0 ng
same,2-methylserotonin remaining,[1]; Extraction 4,0 ng
same,2-methylserotonin remaining,[1]; Extraction 5,0 ng
same,2-methylserotonin remaining,[1]; Extraction 6,0 ng
same,2-methylserotonin remaining,[1]; Extraction 7,0 ng
same,2-methylserotonin remaining,[1]; Extraction 8,0 ng
same,2-methylserotonin remaining,[1]; Extraction 9,0 ng
same,2-methylserotonin remaining,[1]; Extraction 10,0 ng
same,2-methylserotonin remaining,[1]; Extraction 11,0 ng
same,2-methylserotonin remaining,[1]; Extraction 12,0 ng
same,2-methylserotonin remaining,[1]; Extraction 13,0 ng
same,2-methylserotonin remaining,[1]; Extraction 14,0 ng
same,2-methylserotonin remaining,[1]; Extraction 15,0 ng
same,2-methylserotonin removed by the first cycle of extraction,"[1]; methanol, spike-in added to orange fiber",95%
CC(N)Cc1c[nH]c2ccc(O)cc12 (stereo not drawn) [alpha-methylserotonin],glycogen synthesis,rat hepatocytes,able to increase glycogen synthesis
NCCc1c[nH]c2ccc(O)cc12 [serotonin],fecal serotonin levels,"[2]; female, human",7 ± 5.7 µM
same,fecal serotonin levels as % of that of N-methylserotonin,[2],0-8.6%
same,glycogen synthesis,rat hepatocytes,decreases glycogen synthesis
Bacteroides cellulosilyticus,"N-methylserotonin released, MEGA Medium 2.0 72 hrs",[3],1.0 ± 0.2 ng
same,"N-methylserotonin released, TYG medium 8 hrs",[3],0.3 ± 0.1 ng
same,"N-methylserotonin released, TYG medium 24 hrs",[3],0.3 ± 0.1 ng
same,"N-methylserotonin released, TYG medium 48 hrs",[3],0.6 ± 0.1 ng
same,"N-methylserotonin released, TYG medium 72 hrs",[3],0.9 ± 0.2 ng
same,"N-methylserotonin released, Wilkins-Chalgren 72 hrs",[3],1 ± 0.2 ng
Cellulase,N-methylserotonin levels at 72 h,[4]; 50 mg orange fiber incubated with enzyme,2727.9 ± 25.5 ng
same,total yield of N-methylserotonin,[4]; orange fiber incubated with enzyme preparation,2728±26 ng/50 mg orange fiber
Parabacteroides distasonis,"N-methylserotonin levels, Cellular extract",[5]; Mega 2.0 (+orange fiber),0.3 ± 0.1 ng
same,"N-methylserotonin levels, Conditioned media",[5]; Mega 2.0 (+orange fiber),0.3 ± 0.1 ng
same,"N-methylserotonin levels, Heat inactivated",[5]; Mega 2.0 (+orange fiber),0.4 ± 0.1 ng
same,"N-methylserotonin levels, Cellular extract","[5]; Mega 2.0, no orange fiber",ND (ND (not detected)=N-methylserotonin levels below 0.02 ng)
same,"N-methylserotonin levels, Conditioned media","[5]; Mega 2.0, no orange fiber",ND (ND (not detected)=N-methylserotonin levels below 0.02 ng)
same,"N-methylserotonin levels, Heat inactivated","[5]; Mega 2.0, no orange fiber",ND (ND (not detected)=N-methylserotonin levels below 0.02 ng)
same,"N-methylserotonin levels, Cellular extract",[5]; TYG (+orange fiber),0.2 ± 0.1 ng
same,"N-methylserotonin levels, Conditioned media",[5]; TYG (+orange fiber),0.3 ± 0.1 ng
same,"N-methylserotonin levels, Heat inactivated",[5]; TYG (+orange fiber),0.3 ± 0.1 ng
same,"N-methylserotonin levels, Cellular extract","[5]; TYG, no orange fiber",ND (ND (not detected)=N-methylserotonin levels below 0.02 ng)
same,"N-methylserotonin levels, Conditioned media","[5]; TYG, no orange fiber",ND (ND (not detected)=N-methylserotonin levels below 0.02 ng)
same,"N-methylserotonin levels, Heat inactivated","[5]; TYG, no orange fiber",ND (ND (not detected)=N-methylserotonin levels below 0.02 ng)
same,"N-methylserotonin levels with heat-killed cells, lysates or conditioned medium","[5]; fresh TYG with orange fiber, 72 hours",failed to yield levels of N-methylserotonin above background
same,"N-methylserotonin released, MEGA Medium 2.0 72 hrs",[3],24.8 ± 2.1 ng
same,"N-methylserotonin released, TYG medium 8 hrs",[3],0.3 ± 0.1 ng
same,"N-methylserotonin released, TYG medium 24 hrs",[3],1.0 ± 0.1 ng
same,"N-methylserotonin released, TYG medium 48 hrs",[3],7.5 ± 0.7 ng
same,"N-methylserotonin released, TYG medium 72 hrs",[3],24.3 ± 2.4 ng
same,"N-methylserotonin released, Wilkins-Chalgren 72 hrs",[3],22.1 ± 0.7 ng
same,N-methylserotonin yielded at the 72-hour time point,"[3]; TYG, 5 mg/mL orange fiber, triplicate",24±2 ng N-methylserotonin/10^6 cells

# Reference: US20250345370A1, “MICROBIAL LIBERATION OF N-METHYLSEROTONIN FROM ORANGE FIBER” (Washington University, priority 2022, published 2025)
